Earlier results, collected in patent publication US20110064750A1, “METHOD AND KIT FOR TREATING NICOTINE ADDICTION” (Nabi Biopharmaceuticals, priority 2009, published 2011).
Like-named read-outs stand apart in the source and are kept apart here.

Assays:
[1] = tested on: smoking abstinence; conditions: 12 week course, varenicline 1.0 mg bid, bupropion 150 mg SR bid, carbon-monoxide confirmed
[2] = biological target: α4β2 nicotinic receptors (Homo sapiens, UniProt P17787+P43681); conditions: stimulating receptor-mediated activity at a significantly lower level than nicotine
Sequence of α4β2 nicotinic receptors (P43681 29-627 limits assumed): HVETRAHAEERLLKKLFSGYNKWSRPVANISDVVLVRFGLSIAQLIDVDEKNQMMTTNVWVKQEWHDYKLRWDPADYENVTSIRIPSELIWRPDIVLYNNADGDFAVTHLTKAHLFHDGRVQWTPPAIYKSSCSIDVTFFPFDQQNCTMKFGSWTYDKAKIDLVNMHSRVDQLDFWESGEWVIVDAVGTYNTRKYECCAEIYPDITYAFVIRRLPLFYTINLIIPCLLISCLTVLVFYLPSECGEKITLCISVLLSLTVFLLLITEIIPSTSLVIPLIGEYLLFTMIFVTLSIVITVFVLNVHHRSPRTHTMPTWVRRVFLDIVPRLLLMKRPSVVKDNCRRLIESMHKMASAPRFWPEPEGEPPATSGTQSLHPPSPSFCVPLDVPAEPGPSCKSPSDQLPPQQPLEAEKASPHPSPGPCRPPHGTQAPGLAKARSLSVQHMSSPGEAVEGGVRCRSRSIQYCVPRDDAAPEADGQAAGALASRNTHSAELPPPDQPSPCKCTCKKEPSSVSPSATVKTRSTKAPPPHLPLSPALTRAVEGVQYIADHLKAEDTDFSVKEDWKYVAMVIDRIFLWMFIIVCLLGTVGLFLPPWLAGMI
Sequence of α4β2 nicotinic receptors (P17787 26-502): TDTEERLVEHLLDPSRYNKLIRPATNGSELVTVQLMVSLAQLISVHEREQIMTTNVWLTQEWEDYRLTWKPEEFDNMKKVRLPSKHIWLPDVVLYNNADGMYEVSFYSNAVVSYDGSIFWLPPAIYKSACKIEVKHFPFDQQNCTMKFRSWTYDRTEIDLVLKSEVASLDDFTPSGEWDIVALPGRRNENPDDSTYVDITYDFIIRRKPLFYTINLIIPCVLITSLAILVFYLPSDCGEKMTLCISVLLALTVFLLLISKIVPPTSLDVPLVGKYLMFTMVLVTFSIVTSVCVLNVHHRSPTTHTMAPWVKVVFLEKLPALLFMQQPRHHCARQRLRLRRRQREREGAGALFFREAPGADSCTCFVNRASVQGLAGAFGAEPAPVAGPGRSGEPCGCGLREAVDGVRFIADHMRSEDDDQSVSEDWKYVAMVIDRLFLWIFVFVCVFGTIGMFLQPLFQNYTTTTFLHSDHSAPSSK

[3] = tested on: smoking cessation; conditions: for Time at which efficacy generally is apparent: previous studies
[4] = salt form, powder
[5] = tested on: smoking abstinence
[6] = biological target: α3β2 nicotinic acetylcholine receptors (Homo sapiens, UniProt P17787+P32297); conditions: blocking nicotine activation of nAChRs
Sequence of α3β2 nicotinic acetylcholine receptors (P32297 32-505): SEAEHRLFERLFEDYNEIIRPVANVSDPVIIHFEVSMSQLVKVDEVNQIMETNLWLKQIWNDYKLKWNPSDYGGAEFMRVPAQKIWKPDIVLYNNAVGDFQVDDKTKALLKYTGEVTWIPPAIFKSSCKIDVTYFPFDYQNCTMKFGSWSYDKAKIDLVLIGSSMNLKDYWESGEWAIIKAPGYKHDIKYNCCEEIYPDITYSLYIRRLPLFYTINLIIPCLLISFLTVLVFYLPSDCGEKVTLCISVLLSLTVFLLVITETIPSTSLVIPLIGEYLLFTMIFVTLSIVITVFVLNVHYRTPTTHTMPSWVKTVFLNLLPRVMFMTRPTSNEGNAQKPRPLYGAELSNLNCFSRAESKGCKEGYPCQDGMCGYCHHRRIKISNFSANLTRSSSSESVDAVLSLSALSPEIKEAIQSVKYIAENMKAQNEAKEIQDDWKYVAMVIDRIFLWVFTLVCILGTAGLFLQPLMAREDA
Sequence of α3β2 nicotinic acetylcholine receptors (P17787 26-502): as the sequence (P17787 26-502) above

[7] = biological target: α4β2 nicotinic acetylcholine receptors (Homo sapiens, UniProt P17787+P43681); conditions: blocking nicotine activation of nAChRs
Sequence of α4β2 nicotinic acetylcholine receptors (P43681 29-627 limits assumed): as the sequence (P43681 29-627 limits assumed) above
Sequence of α4β2 nicotinic acetylcholine receptors (P17787 26-502): as the sequence (P17787 26-502) above

[8] = tested on: neuronal uptake of norepinephrine and dopamine
[9] = tested on: monoamine oxidase

For `c1cnc2cc3c(cc2n1)[C@@H]1CNC[C@H]3C1` [Varenicline, 7,8,9,10-tetrahydro-6,10-methano-6H-pyrazino[2,3-h][3]benzazpine, (2R,3R)-2,3-dihydroxybutanedioate(1:1)], the “Continuous Abstinence Rate (Wks 9-12)” value ([1]; Study A) is listed as 21%, the “Continuous Abstinence Rate (Wks 9-12)” value ([1]; Study B) is listed as 22% and the “Agonist activity at α4β2 nicotinic receptors” value [2] is listed as “low level agonist”. The “Time at which efficacy generally is apparent” value [3] was “one week after the first dose” and the Solubility in water [4] was “highly soluble in water”.

In the case of `CC(NC(C)(C)C)C(=O)c1cccc(Cl)c1.Cl` (stereo not shown) [Bupropion, Bupropion hydrochloride], the “Continuous Abstinence Rate (Wks 9-12)” value ([1]; Study A) is given as 16%, the “Continuous Abstinence Rate (Wks 9-12)” value ([1]; Study B) is given as 14% and the “Abstinence from week 4 through Week 7 (4-week quit)” value (from here on “Abstinence … (4-week quit)”) ([5]; 100 mg/day) is given as 22%. For the same molecule, the “Abstinence from week 4 through Week 12” value ([5]; 100 mg/day) was 20%, the “Abstinence from week 4 through Week 26” value ([5]; 100 mg/day) was 16% and the “Abstinence … (4-week quit)” value ([5]; 150 mg/day) was 27%. The “Abstinence from week 4 through Week 12” value ([5]; 150 mg/day) was 20%, the “Abstinence from week 4 through Week 26” value ([5]; 150 mg/day) was 18% and the “Abstinence … (4-week quit)” value ([5]; 300 mg/day) was 36%. The “Abstinence from week 4 through Week 12” value ([5]; 300 mg/day) was 25%, the “Abstinence from week 4 through Week 26” value ([5]; 300 mg/day) was 19% and the “Times more effective in blocking α3β2 than α7” value [6] was 50 times. The “Times more effective in blocking α4β2 than α7” value [7] was 12 times, the “Inhibition of the neuronal uptake of norepinephrine and dopamine” value [8] was “relatively weak inhibitor” and the “Inhibition of monoamine oxidase” value [9] was “does not inhibit”. The “Time at which efficacy may diminish” value ([3]; even though administration is ongoing) was “after about six or seven weeks”, the “Chances of quitting smoking compared with placebo” value ([3]; in vivo) was “double” and the “Nicotine craving and nicotine withdrawal symptoms” value ([3]; in vivo) was “lower”. For the same molecule, the “Time at which efficacy generally is apparent” value [3] was “one week after the first dose” and the Solubility in water [4] was “highly soluble in water”.
